Experiments:
Format in all cases: in vivo
[1] = tested on: transplanted Oryza sativa; assay: Test Example 1: effect on crop, application before weed generation in submerged conditions; conditions: Application herbicide amount 320 g/ha; Seventeenth Table
Method in brief: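 Rating, on a six-step scale from almost no effect (0) to almost completely withered (5), was made three weeks after pre-emergence treatment. Treatment was surface application to flooded pots at g/ha rates, with plants kept at 25° C. to 30° C.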

[2] = tested on: directly sowed Oryza sativa; assay: Test Example 3: effect on crop by application to foliage (Wagner pot, water depth 0.1-0.5 cm); conditions: Nineteenth Table; application to foliage; application herbicide amount 320 g/ha
Method in brief: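 Scores (0–5) reflect herbicidal ratio three weeks after a foliar spray: 0 is 5% or less, 5 is 90% or more. Plants had grown 14 days in alluvial soil pots in a 25–30 °C greenhouse before treatment with water-diluted emulsion at a set g/ha.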

Abutilon theophrasti = assay: Test Example 4: herbicidal effect by application to foliage (diluvial soil, plastic box); conditions: foliage application, 320 g/ha
Method in brief: (§1)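 Emulsion-formulated compound, diluted to a predetermined g/ha dose, applied by small sprayer to leaves and stems of 14-day-old seedlings grown in sterilized diluvial soil. Effect rated on 0–5 herbicidal-ratio scale three weeks on.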

Apera spica-venti. = assay: as above; conditions: foliage application, 320 g/ha
Method in brief: as §1

Avena fatua = assay: as above; conditions: foliage application, 320 g/ha
Method in brief: as §1

Chenopodium album = assay: as above; conditions: foliage application, 320 g/ha
Method in brief: as §1

[3] = tested on: Echinochloa crus-galli var. crus-galli; assay: as above; conditions: foliage application, 320 g/ha
Method in brief: as §1

Galium spurium = assay: as above; conditions: foliage application, 320 g/ha
Method in brief: as §1

Veronica persica = assay: as above; conditions: foliage application, 320 g/ha
Method in brief: as §1

| Compound | a: transplanted Oryza sativa (effect on crop grade) [1] | b (effect on crop grade) [2] | M (Abutilon theophrasti) herbicidal effect grade (Abutilon theophrasti) | L (Apera spica-venti.) herbicidal effect grade (Apera spica-venti.) | I (Avena fatua) herbicidal effect grade (Avena fatua) | O (Chenopodium album) herbicidal effect grade (Chenopodium album) | H (Echinochloa crus-galli var. crus-galli) herbicidal effect grade [3] | Q (Galium spurium) herbicidal effect grade (Galium spurium) | R (Veronica persica) herbicidal effect grade (Veronica persica) |
| --- | --- | --- | --- | --- | --- | --- | --- | --- | --- |
| Cn1nnnc1NC(=O)c1ccc(C(F)(F)F)n2c(CS(C)(=O)=O)nnc12 [2-034] | 4 (Herbicidal ratio of 70% or more and less than 90%) | 5 (Herbicidal ratio of 90% or more (almost completely withered)) | 5 (Herbicidal ratio of 90% or more (almost completely withered)) | 5 (Herbicidal ratio of 90% or more (almost completely withered)) | 5 (Herbicidal ratio of 90% or more (almost completely withered)) | 5 (Herbicidal ratio of 90% or more (almost completely withered)) | 5 (Herbicidal ratio of 90% or more (almost completely withered)) | 5 (Herbicidal ratio of 90% or more (almost completely withered)) | 5 (Herbicidal ratio of 90% or more (almost completely withered)) |
| Cn1nnnc1NC(=O)c1ccc(C(F)(F)F)n2c(C[S+]([O-])CC(F)(F)F)nnc12 (stereo not drawn) [2-035] | 4 (Herbicidal ratio of 70% or more and less than 90%) | 5 (Herbicidal ratio of 90% or more (almost completely withered)) | 5 (Herbicidal ratio of 90% or more (almost completely withered)) | 4 (Herbicidal ratio of 70% or more and less than 90%) | 4 (Herbicidal ratio of 70% or more and less than 90%) | 5 (Herbicidal ratio of 90% or more (almost completely withered)) | 5 (Herbicidal ratio of 90% or more (almost completely withered)) | 2 (Herbicidal ratio of 20% or more and less than 40%) | 5 (Herbicidal ratio of 90% or more (almost completely withered)) |
| Cn1nnnc1NC(=O)c1ccc(C(F)(F)F)n2c(S(C)(=O)=O)nnc12 [2-037] | 4 (Herbicidal ratio of 70% or more and less than 90%) | 5 (Herbicidal ratio of 90% or more (almost completely withered)) | 5 (Herbicidal ratio of 90% or more (almost completely withered)) | 5 (Herbicidal ratio of 90% or more (almost completely withered)) | 5 (Herbicidal ratio of 90% or more (almost completely withered)) | 5 (Herbicidal ratio of 90% or more (almost completely withered)) | 5 (Herbicidal ratio of 90% or more (almost completely withered)) | 5 (Herbicidal ratio of 90% or more (almost completely withered)) | 5 (Herbicidal ratio of 90% or more (almost completely withered)) |
| CCS(=O)(=O)c1nnc2c(C(=O)Nc3nnnn3C)ccc(C(F)(F)F)n12 [2-038] | 4 (Herbicidal ratio of 70% or more and less than 90%) | 5 (Herbicidal ratio of 90% or more (almost completely withered)) | 5 (Herbicidal ratio of 90% or more (almost completely withered)) | 5 (Herbicidal ratio of 90% or more (almost completely withered)) | 5 (Herbicidal ratio of 90% or more (almost completely withered)) | 5 (Herbicidal ratio of 90% or more (almost completely withered)) | 5 (Herbicidal ratio of 90% or more (almost completely withered)) | 5 (Herbicidal ratio of 90% or more (almost completely withered)) | 5 (Herbicidal ratio of 90% or more (almost completely withered)) |
| CC(C)c1nnc2c(C(=S)Nc3nnnn3C)ccc(C(F)(F)F)n12 [2-039, 3-Isopropyl-N-(1-methyl-1H-tetrazol-5-yl)-5-(trifluoromethyl)-[1,2,4]triazolo[4,3-a]pyridine-8-carbothioamide] | 4 (Herbicidal ratio of 70% or more and less than 90%) | 4 (Herbicidal ratio of 70% or more and less than 90%) | 5 (Herbicidal ratio of 90% or more (almost completely withered)) | 4 (Herbicidal ratio of 70% or more and less than 90%) | 4 (Herbicidal ratio of 70% or more and less than 90%) | 5 (Herbicidal ratio of 90% or more (almost completely withered)) | 5 (Herbicidal ratio of 90% or more (almost completely withered)) | 4 (Herbicidal ratio of 70% or more and less than 90%) | 5 (Herbicidal ratio of 90% or more (almost completely withered)) |
| CCOC(=O)Cc1nnc2c(C(=O)Nc3nnnn3C)ccc(C(F)(F)F)n12 [2-040] | 4 (Herbicidal ratio of 70% or more and less than 90%) | 4 (Herbicidal ratio of 70% or more and less than 90%) | 5 (Herbicidal ratio of 90% or more (almost completely withered)) | 3 (Herbicidal ratio of 40% or more and less than 70%) | 3 (Herbicidal ratio of 40% or more and less than 70%) | 5 (Herbicidal ratio of 90% or more (almost completely withered)) | 5 (Herbicidal ratio of 90% or more (almost completely withered)) | 4 (Herbicidal ratio of 70% or more and less than 90%) | 5 (Herbicidal ratio of 90% or more (almost completely withered)) |
| COCCn1nnnc1NC(=O)c1ccc(C(F)(F)F)n2c(C(C)C)nnc12 [2-041] | 0 (Herbicidal ratio of 5% or less (almost no effect)) | 3 (Herbicidal ratio of 40% or more and less than 70%) | 5 (Herbicidal ratio of 90% or more (almost completely withered)) | 4 (Herbicidal ratio of 70% or more and less than 90%) | 3 (Herbicidal ratio of 40% or more and less than 70%) | 5 (Herbicidal ratio of 90% or more (almost completely withered)) | 5 (Herbicidal ratio of 90% or more (almost completely withered)) | 4 (Herbicidal ratio of 70% or more and less than 90%) | 4 (Herbicidal ratio of 70% or more and less than 90%) |
| Cc1ccc(-c2nnc3c(C(=O)Nc4nnnn4C)ccc(C(F)(F)F)n23)cc1 [2-042] | 5 (Herbicidal ratio of 90% or more (almost completely withered)) | 5 (Herbicidal ratio of 90% or more (almost completely withered)) | 5 (Herbicidal ratio of 90% or more (almost completely withered)) | 0 (Herbicidal ratio of 5% or less (almost no effect)) | 2 (Herbicidal ratio of 20% or more and less than 40%) | 5 (Herbicidal ratio of 90% or more (almost completely withered)) | 5 (Herbicidal ratio of 90% or more (almost completely withered)) | 1 (Herbicidal ratio of 5% or more and less than 20%) | 5 (Herbicidal ratio of 90% or more (almost completely withered)) |
